Assay [1] deals with T1, human DP2 receptor (Homo sapiens, UniProt Q9Y5Y4).
T1 construct: expressed in transfected cells
T1 sequence (Q9Y5Y4 1-395): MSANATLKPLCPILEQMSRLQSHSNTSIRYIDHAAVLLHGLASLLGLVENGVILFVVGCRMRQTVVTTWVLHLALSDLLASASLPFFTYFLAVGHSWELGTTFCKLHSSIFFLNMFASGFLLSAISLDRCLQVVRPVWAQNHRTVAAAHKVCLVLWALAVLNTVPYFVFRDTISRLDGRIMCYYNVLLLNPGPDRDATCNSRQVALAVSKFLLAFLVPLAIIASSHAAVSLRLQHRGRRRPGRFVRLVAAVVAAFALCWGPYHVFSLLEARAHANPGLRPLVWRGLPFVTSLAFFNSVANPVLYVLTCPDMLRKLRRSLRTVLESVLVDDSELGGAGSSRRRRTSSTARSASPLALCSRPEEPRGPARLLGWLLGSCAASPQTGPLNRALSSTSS
In words: DP2/CRTH2 radioligand binding assay ([3H]PGD2). The settings on record: membranes of HEK293 cells expressing recombinant human DP2, 1 nM [3H]PGD2; read-out: hDP2. The method, then:
The ability of a compound to bind to the human DP2 receptor is assessed via a radioligand binding assay using [^3H]PGD2. HEK293 cells stably expressing recombinant human DP2 are resuspended in 10 mM Hepes, 7.4 containing 1 mM DTT, lysed and centrifuged at 75,000×g to pellet the membranes. The membranes are resuspended in 10 mM Hepes, 7.4 containing 1 mM DTF and 10% glycerol to approximately 5 mg protein/ml. Membranes (2-10 […]) are incubated in 96-well plates with 1 nM [^3H]PGD2 and test compound in Assay Buffer (50 mM Hepes, 10 mM MnCl2, 1 mM EDTA, plus or minus 0.2% human serum albumin, pH 7.4) for 60 minutes at room temperature. The reactions are terminated by rapid filtration through Whatman GF/C glass fibre filter plates. The filter plates were pre-soaked in 0.33% polythylenimine for 30 minutes at room temperature then washed in Wash Buffer (50 mM Hepes, 0.5 M NaCl pH 7.4) prior to harvesting. After harvesting, the filter plates are washed 3 times with 1 ml cold Wash Buffer then dried. Scintillant is then added to the plates and the radioactivity retained on the filters is determined on a Packard TopCount (Perkin Elmer). Specific binding is determined as total radioactive binding minus non-specific binding in the presence of 10 μM PGD2. IC50s were determined using GraphPad prism analysis of drug titration curves.

In assay [2] the target is T2, human DP1 receptor (Homo sapiens, UniProt Q13258).
T2 construct: tissue Biological Specialty Corporation; host or cells: human platelets, membrane preparation
T2 sequence (Q13258 1-359): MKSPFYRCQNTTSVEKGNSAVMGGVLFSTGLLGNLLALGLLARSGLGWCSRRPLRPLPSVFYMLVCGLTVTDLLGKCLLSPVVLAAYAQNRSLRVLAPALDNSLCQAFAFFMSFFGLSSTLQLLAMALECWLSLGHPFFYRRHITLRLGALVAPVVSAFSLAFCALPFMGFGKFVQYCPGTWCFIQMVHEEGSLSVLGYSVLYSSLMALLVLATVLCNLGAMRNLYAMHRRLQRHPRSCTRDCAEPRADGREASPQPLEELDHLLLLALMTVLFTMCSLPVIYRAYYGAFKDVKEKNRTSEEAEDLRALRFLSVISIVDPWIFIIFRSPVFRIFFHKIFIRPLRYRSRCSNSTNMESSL
In words: DP1 radioligand membrane binding assay ([3H]BWA868C). The conditions noted are these: human platelet membranes, 2 nM [3H]BWA868C; read-out: hDP1. The method, then: The ability of a compound to bind to the human DP1 receptor was evaluated via a radioligand membrane binding assay using the DP1 selective synthetic ligand [^3H]BWA868C. Packed human platelets (Biological Specialty Corporation), were resuspended in 6 volumes of Hepes/HBSS buffer (10 mM Hepes, 1 mM DTT in Hanks Balanced Salt Solution (HBSS), lysed and centrifuged at 75,000×g to pellet the membranes. Membranes were resuspended in Hepes/HBSS buffer to approximately 12 mg protein/ml. Membranes (20 μg protein/well) are incubated in 96-well plates with 2 nM [^3H]BWA868C and test compound in Assay Buffer (50 mM Hepes, 10 mM MnCl2, 1 mM EDTA, plus or minus 0.2% human serum albumin, pH 7.4) for 60 minutes at room temperature. The reactions are terminated by rapid filtration through Whatman GF/C glass fibre filter plates. The filter plates were pre-soaked in 0.33% polyethylenimine for 30 minutes at room temperature then washed in Wash Buffer (50 mM Hepes, 0.5 M NaCl pH 7.4) prior to harvesting. After harvesting, the filter plates are washed 3 times with 1 ml cold Wash Buffer then dried. Scintillant is then added to the plates and the radioactivity retained on the filters is determined on a Packard TopCount (Perkin Elmer). Specific binding is determined as total radioactive binding minus non-specific binding in the presence of 10 μM BW A868C. IC50s were determined using GraphPad prism analysis of drug titration curves.

As for `O=C(O)Cc1cccc(Oc2ccc(Br)cc2CSc2ccccn2)c1` [Compound 1-17, {3-[4-Bromo-2-(pyridin-2-ylsulfanylmethyl)-phenoxy]-phenyl}-acetic acid], the IC50 in assay [1] and in assay [2] was 300 to 1000 nM in each case.
As for `Cc1nnc(SCc2cc(Br)ccc2Oc2cccc(CC(=O)O)c2)s1` [Compound 1-15, {3-[4-Bromo-2-(5-methyl-[1,3,4]thiadiazol-2-ylsulfanylmethyl)-phenoxy]-phenyl}-acetic acid], the figures for the IC50 in assay [1] and in assay [2] were below 300 nM and above 1000 nM, respectively.
In the same order, the values of `COc1ccc(CC(=O)O)cc1Oc1ccc(C(F)(F)F)cc1CS(=O)(=O)c1ccccc1` [Compound 1-7, [3-(2-Benzenesulfonylmethyl-4-trifluoromethyl-phenoxy)-4-methoxy-phenyl]-acetic acid] are 300 to 1000 nM and above 1000 nM.
The corresponding values for `COc1ccc(CC(=O)O)cc1Oc1ccc(Cl)cc1CSCc1ccccc1` [Compound 1-54, [3-(2-Benzylsulfanylmethyl-4-chloro-phenoxy)-4-methoxy-phenyl]-acetic acid] are below 300 nM and 300 to 1000 nM.
In the same order, the values of `CN(C)CCSCc1cc(Br)ccc1Oc1cccc(CC(=O)O)c1` [Compound 1-18, {3-[4-Bromo-2-(2-dimethylamino-ethylsulfanylmethyl)-phenoxy]-phenyl}-acetic acid] are above 1000 nM and above 1000 nM.
With `O=C(O)Cc1cccc(Oc2ccc(Br)cc2CS(=O)(=O)Cc2ccccc2)c1` [Compound 1-21, [3-(4-Bromo-2-phenylmethanesulfonylmethyl-phenoxy)-phenyl]-acetic acid], the IC50 in assay [1] was below 300 nM; in assay [2], 300 to 1000 nM.
With `O=C(O)Cc1cccc(Oc2ccc(Br)cc2CSc2ccccc2)c1` [Compound 1-11, [3-(4-Bromo-2-phenylsulfanylmethyl-phenoxy)-phenyl]-acetic acid], the IC50 is below 300 nM in assay [1] and 300 to 1000 nM in assay [2].
As to `Cc1nnc(S(=O)(=O)Cc2cc(Br)ccc2Oc2cccc(CC(=O)O)c2)s1` [Compound 1-26, {3-[4-Bromo-2-(5-methyl-[1,3,4]thiadiazole-2-sulfonylmethyl)-phenoxy]-phenyl}-acetic acid], the figures for the IC50 in assay [1] and in assay [2] were below 300 nM and above 1000 nM, respectively.
Turning to `O=C(O)Cc1cccc(Oc2ccc(Br)cc2CSCc2ccccc2)c1` [Compound 1-12, [3-(2-Benzylsulfanylmethyl-4-bromo-phenoxy)-phenyl]-acetic acid], the IC50 in assay [1] and in assay [2] was below 300 nM throughout.
For `Cc1nnc([S+]([O-])Cc2cc(Br)ccc2Oc2cccc(CC(=O)O)c2)s1` (stereo not drawn) [Compound 1-34, {3-[4-Bromo-2-(5-methyl-[1,3,4]thiadiazole-2-sulfinylmethyl)-phenoxy]-phenyl}-acetic acid], the IC50 in assay [1] is below 300 nM; in assay [2], above 1000 nM.
The corresponding values for `O=C(O)Cc1cccc(Oc2ccc(Br)cc2CSc2ccc3ccccc3n2)c1` [Compound 1-16, {3-[4-Bromo-2-(quinolin-2-ylsulfanylmethyl)-phenoxy]-phenyl}-acetic acid] are 300 to 1000 nM and 300 to 1000 nM.
In the same order, the values of `O=C(O)Cc1cccc(Oc2ccc(Br)cc2CS(=O)(=O)c2ccccc2)c1` [Compound 1-20, [3-(2-Benzenesulfonylmethyl-4-bromo-phenoxy)-phenyl]-acetic acid] are below 300 nM and above 1000 nM.
In the same order, the values of `O=C(O)Cc1cccc(Oc2ccc(Br)cc2COc2ccccc2)c1` [Compound 1-37, [3-(4-Bromo-2-phenoxymethyl-phenoxy)-phenyl]-acetic acid] are above 1000 nM and 300 to 1000 nM.
Consider `O=C(O)Cc1cccc(Oc2ccc(Br)cc2C[S+]([O-])c2ccc3ccccc3n2)c1` (stereo not drawn) [Compound 1-32, {3-[4-Bromo-2-(quinoline-2-sulfinylmethyl)-phenoxy]-phenyl}-acetic acid], for which the IC50 in assay [1] was below 300 nM; in assay [2], above 1000 nM.
For `COc1ccc(CC(=O)O)cc1Oc1ccc(C(F)(F)F)cc1C[S+]([O-])C(C)(C)C` (stereo not drawn) [Compound 1-9, {4-Methoxy-3-[2-(2-methyl-propane-2-sulfinylmethyl)-4-trifluoromethyl-phenoxy]-phenyl}-acetic acid], the IC50 in assay [1] and in assay [2] was above 1000 nM in each case.
For the compound `COc1ccc(CC(=O)O)cc1Oc1ccc(Cl)cc1CS(=O)(=O)Cc1ccccc1` [Compound 1-56, [3-(4-Chloro-2-phenylmethanesulfonylmethyl-phenoxy)-4-methoxy-phenyl]-acetic acid], the IC50 was below 300 nM in assay [1] and above 1000 nM in assay [2].
In the case of `O=C(O)Cc1cccc(Oc2ccc(Br)cc2CS(=O)(=O)CCc2ccccc2)c1` [Compound 1-22, {3-[4-Bromo-2-(2-phenyl-ethanesulfonylmethyl)-phenoxy]-phenyl}-acetic acid], the IC50 is below 300 nM in assay [1] and above 1000 nM in assay [2].
In the same order, the values of `COc1ccc(CC(=O)O)cc1Oc1ccc(C(F)(F)F)cc1CSCCc1ccccc1` [Compound 1-1, [4-Methoxy-3-(2-phenethylsulfanylmethyl-4-trifluoromethyl-phenoxy)-phenyl]-acetic acid] are below 300 nM and above 1000 nM.
In the same order, the values of `O=C(O)CSCc1cc(Br)ccc1Oc1cccc(CC(=O)O)c1` [Compound 1-19, [3-(4-Bromo-2-carboxymethylsulfanylmethyl-phenoxy)-phenyl]-acetic acid] are above 1000 nM and above 1000 nM.
`CN(C)CCS(=O)(=O)Cc1cc(Br)ccc1Oc1cccc(CC(=O)O)c1` [Compound 1-27, {3-[4-Bromo-2-(2-dimethylamino-ethanesulfonylmethyl)-phenoxy]-phenyl}-acetic acid]: the IC50 in assay [1] is below 300 nM; in assay [2], above 1000 nM.
Consider `COc1ccc(CC(=O)O)cc1Oc1ccc(C(F)(F)F)cc1CS(=O)(=O)C(C)(C)C` [Compound 1-6, {4-Methoxy-3-[2-(2-methyl-propane-2-sulfonylmethyl)-4-trifluoromethyl-phenoxy]-phenyl}-acetic acid], for which the IC50 in assay [1] and in assay [2] was above 1000 nM throughout.
For `O=C(O)Cc1cccc(Oc2ccc(Br)cc2C[S+]([O-])c2nccs2)c1` (stereo not drawn) [Compound 1-33, {3-[4-Bromo-2-(thiazole-2-sulfinylmethyl)-phenoxy]-phenyl}-acetic acid], the IC50 is below 300 nM in assay [1] and above 1000 nM in assay [2].
The corresponding values for `COc1ccc(CC(=O)O)cc1Oc1ccc(C(F)(F)F)cc1C[S+]([O-])c1ccccc1` (stereo not drawn) [Compound 1-10, [3-(2-Benzenesulfinylmethyl-4-trifluoromethyl-phenoxy)-4-methoxy-phenyl]-acetic acid] are below 300 nM and above 1000 nM.
Turning to `O=C(O)Cc1cccc(Oc2ccc(Br)cc2C[S+]([O-])Cc2ccccc2)c1` (stereo not drawn) [Compound 1-29, [3-(4-Bromo-2-phenylmethanesulfinylmethyl-phenoxy)-phenyl]-acetic acid], the IC50 in assay [1] is below 300 nM; in assay [2], above 1000 nM.
